This is an account of results in patent US12338253B2, “Nitrogen-containing polycyclic fused ring compound, pharmaceutical composition thereof, preparation method therefor and use thereof” (APPLIED PHARMACEUTICAL SCIENCE, INC., priority 2019, dated 2025).

The target in one assay is RET V804M (Homo sapiens (Human), UniProt P07949, V804M). The assay is described as follows: HTRF kinase activity test, RET V804M. Type of assay: biochemical. As to conditions: for IC50: HTRF KinEASE-TK; for inhibitory activity on RET V804M compared with cabozantinib: comparison in words.
The test system of a further assay is TT Cell. The assay is described as follows: TT cell activity test (CelltiterGlo, 72 h). Type of assay: cell-based, human. As to conditions: for IC50: Homo sapiens, TT cell line, 72 h, CTG; for inhibitory activity on TT cells compared with cabozantinib: comparison in words. How it is done:
2.3 Data Processing % Inhibition (inhibition rate)=100*(HC−test compound well reading)/(HC−LC) • High control (HC, reading control without inhibition): 0.5% DMSO • Low control (LC, control with compound inhibition): 1 μM CEP-32496
The IC50 values were calculated using GraphPad Prism 6 software. Y=Bottom+(Top−Bottom)/(1+10^((Log IC50−X)*HillSlope)); • X: log of cpd concentration; • Y: % inhibition; • Top and Bottom: plateaus in same units as Y; • Log IC50: same log units as X; and • HillSlope: slope factor The Cell Results are Shown in Table 5: […]

The next assay concerns the target RET G810R (Homo sapiens (Human), UniProt P07949, G810R). The assay is described as follows: HTRF kinase activity test, RET G810R. Format: biochemical. As to conditions: for IC50: HTRF KinEASE-TK; for inhibitory activity on RET G810R compared with cabozantinib and selpercatinib (LOXO-292): comparison in words.
A further assay concerns the target RET wt (Homo sapiens (Human), UniProt P07949). In words: HTRF kinase activity test, RET wt. Format: biochemical. As to conditions: for IC50: HTRF KinEASE-TK; for inhibitory activity on RET wt compared with cabozantinib: comparison in words.

Chain of RET G810R (P07949 29-1114 G810R): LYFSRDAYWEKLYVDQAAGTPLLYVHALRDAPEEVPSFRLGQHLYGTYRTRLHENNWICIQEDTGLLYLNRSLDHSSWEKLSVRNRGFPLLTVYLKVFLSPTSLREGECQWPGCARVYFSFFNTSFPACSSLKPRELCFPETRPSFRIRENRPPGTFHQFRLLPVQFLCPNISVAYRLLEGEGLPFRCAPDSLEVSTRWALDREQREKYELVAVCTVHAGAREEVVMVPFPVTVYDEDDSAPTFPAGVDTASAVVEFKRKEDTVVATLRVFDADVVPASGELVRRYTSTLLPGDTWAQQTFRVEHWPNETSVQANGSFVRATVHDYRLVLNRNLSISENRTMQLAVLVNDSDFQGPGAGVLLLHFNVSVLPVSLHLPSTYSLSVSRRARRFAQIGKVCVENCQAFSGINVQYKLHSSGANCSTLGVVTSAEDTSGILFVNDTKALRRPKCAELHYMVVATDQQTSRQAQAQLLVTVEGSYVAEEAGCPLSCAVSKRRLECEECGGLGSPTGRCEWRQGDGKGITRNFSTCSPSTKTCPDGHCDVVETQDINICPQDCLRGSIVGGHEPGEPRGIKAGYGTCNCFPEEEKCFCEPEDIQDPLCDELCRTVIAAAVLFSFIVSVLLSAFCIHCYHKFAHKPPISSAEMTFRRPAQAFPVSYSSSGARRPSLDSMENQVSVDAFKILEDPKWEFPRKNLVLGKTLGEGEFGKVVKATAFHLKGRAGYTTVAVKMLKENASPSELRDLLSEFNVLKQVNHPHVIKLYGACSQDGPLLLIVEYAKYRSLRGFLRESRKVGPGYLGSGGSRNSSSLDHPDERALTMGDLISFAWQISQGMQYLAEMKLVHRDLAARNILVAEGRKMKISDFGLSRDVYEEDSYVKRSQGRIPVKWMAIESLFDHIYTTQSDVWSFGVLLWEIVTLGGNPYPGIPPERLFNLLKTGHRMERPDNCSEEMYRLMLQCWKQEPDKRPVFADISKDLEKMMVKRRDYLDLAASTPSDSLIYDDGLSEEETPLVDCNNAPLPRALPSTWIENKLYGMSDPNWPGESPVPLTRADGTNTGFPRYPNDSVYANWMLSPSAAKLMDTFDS
Chain of RET wt (P07949 29-1114): as the sequence (P07949 29-1114 G810R) above, with R782G counted along it
Chain of RET V804M (P07949 29-1114 V804M): as the sequence (P07949 29-1114 G810R) above, with V776M, R782G counted along it

As to `COc1ccc(C(=O)N2C3CC2CN(c2ccc(-c4cc(OCCF)cn5nc6[nH]ncc6c45)cn2)C3)cn1` [Compound 23, (3-(5-(6-(2-fluoroethoxy)-1H-pyrazolo[3′,4′:3,4]pyrazolo[1,5-a]pyridin-4-yl)pyridin-2-yl)-3,6-diazabicyclo[3.3.1]heptan-6-yl)(6-methoxypyridin-3-yl)methanone], at RET V804M, it took 0.1 nM to reach half-maximal inhibition (IC50) and the “inhibitory activity on RET V804M compared with cabozantinib” value is “significantly better than that of cabozantinib”. Moreover, in the assay with TT Cell, it took 7.9 nM to reach half-maximal inhibition (IC50) and the “inhibitory activity on TT cells compared with cabozantinib” value is given as “significantly better than that of cabozantinib”.

`COc1ccc(CN2C3CC2CN(c2ccc(-c4cc(OCCCF)cn5nc6[nH]ncc6c45)cn2)C3)cn1` [Compound 12, 6-(3-fluoropropoxy)-4-(6-(6-((6-methoxypyridin-3-yl)methyl)-3,6-diazabicyclo[3.3.1]heptan-3-yl)pyridin-3-yl)-1H-pyrazolo[3′,4′:3,4]pyrazolo[1,5-a]pyridine]: on RET G810R, the concentration for half-maximal inhibition (IC50) turned out to be 3.9 nM; the “inhibitory activity on RET G810R compared with cabozantinib and selpercatinib (LOXO-292)” value is “significantly better than that of cabozantinib and selpercatinib (LOXO-292)”. In addition, at RET wt, the half-maximal inhibitory concentration (IC50) was determined as 0.1 nM and the “inhibitory activity on RET wt compared with cabozantinib” value was “significantly better than that of cabozantinib”. At RET V804M, half-maximal inhibition (IC50) was put at 0.1 nM and the “inhibitory activity on RET V804M compared with cabozantinib” value is given as “significantly better than that of cabozantinib”. Moreover, in the assay on TT Cell, the IC50 is 1.5 nM and the “inhibitory activity on TT cells compared with cabozantinib” value was “significantly better than that of cabozantinib”.

Turning to `COCCOc1cc(-c2ccc(N3CC4CC(C3)N4Cc3ccc(OC)nc3)nc2)c2c3cn[nH]c3nn2c1` [Compound 7, 6-(2-methoxyethoxy)-4-(6-(6-((6-methoxypyridin-3-yl)methyl)-3,6-diazabicyclo[3.3.1]heptan-3-yl)pyridin-3-yl)-1H-pyrazolo[3′,4′:3,4]pyrazolo[1,5-a]pyridine], on RET G810R, the IC50 stood at 2.7 nM; the “inhibitory activity on RET G810R compared with cabozantinib and selpercatinib (LOXO-292)” value is “significantly better than that of cabozantinib and selpercatinib (LOXO-292)”. At RET wt, the midpoint of inhibition, the IC50, lay at 0.1 nM and the “inhibitory activity on RET wt compared with cabozantinib” value is “significantly better than that of cabozantinib”. At RET V804M, the IC50 stood at 0.1 nM and the “inhibitory activity on RET V804M compared with cabozantinib” value is “significantly better than that of cabozantinib”. For the same compound, in the assay with TT Cell, the IC50 was 2.5 nM and the “inhibitory activity on TT cells compared with cabozantinib” value is “significantly better than that of cabozantinib”.

As to `COc1ccc(CN2C3CC2CN(c2cnc(-c4cc(OCCF)cn5nc6[nH]ncc6c45)cn2)C3)cn1` [Compound 16, 6-(2-fluoroethoxy)-4-(5-(6-((6-methoxypyridin-3-yl)methyl)-3,6-diazabicyclo[3.3.1]heptan-3-yl)pyrazin-2-yl)-1H-pyrazolo[3′,4′:3,4]pyrazolo[1,5-a]pyridine], at RET G810R, half-maximal inhibition (IC50) required 2.9 nM; the “inhibitory activity on RET G810R compared with cabozantinib and selpercatinib (LOXO-292)” value is “significantly better than that of cabozantinib and selpercatinib (LOXO-292)”. For the same compound, at RET V804M, 0.1 nM corresponded to half-maximal inhibition (IC50) and the “inhibitory activity on RET V804M compared with cabozantinib” value is listed as “significantly better than that of cabozantinib”. In addition, in the assay with TT Cell, the IC50 is 12.8 nM and the “inhibitory activity on TT cells compared with cabozantinib” value was “significantly better than that of cabozantinib”.

Take `COc1ccc(CN2C3CC2CN(c2ccc(-c4cc(OCCOC(F)F)cn5nc6[nH]ncc6c45)cn2)C3)cn1` [Compound 27, 6-(2-(difluoromethoxy)ethoxy)-4-(6-(6-((6-methoxypyridin-3-yl)methyl)-3,6-diazabicyclo[3.3.1]heptan-3-yl)pyridin-3-yl)-1H-pyrazolo[3′,4′:3,4]pyrazolo[1,5-a]pyridine]: on RET G810R, half-maximal inhibition (IC50) was put at 4.8 nM; the “inhibitory activity on RET G810R compared with cabozantinib and selpercatinib (LOXO-292)” value is “significantly better than that of cabozantinib and selpercatinib (LOXO-292)”. Further, at RET wt, half-maximal inhibition (IC50) was put at 0.1 nM and the “inhibitory activity on RET wt compared with cabozantinib” value is recorded as “significantly better than that of cabozantinib”. At RET V804M, the half-inhibitory concentration (IC50) is 0.1 nM and the “inhibitory activity on RET V804M compared with cabozantinib” value is “significantly better than that of cabozantinib”. Besides, in the assay on TT Cell, half-maximal inhibition (IC50) was put at 27.9 nM and the “inhibitory activity on TT cells compared with cabozantinib” value is “significantly better than that of cabozantinib”.

With `COc1ccc(CN2C3CC2CN(c2ccc(-c4cc(OCC(C)C)cn5nc6[nH]ncc6c45)cn2)C3)cn1` [Compound 39, 6-isobutoxy-4-(6-(6-((6-methoxypyridin-3-yl)methyl)-3,6-diazabicyclo[3.3.1]heptan-3-yl)pyridin-3-yl)-1H-pyrazolo[3′,4′:3,4]pyrazolo[1,5-a]pyridine], at RET G810R, the midpoint of inhibition, the IC50, lay at 30.5 nM; the “inhibitory activity on RET G810R compared with cabozantinib and selpercatinib (LOXO-292)” value was “significantly better than that of cabozantinib and selpercatinib (LOXO-292)”. In addition, on RET wt, the concentration for half-maximal inhibition (IC50) amounted to 0.4 nM and the “inhibitory activity on RET wt compared with cabozantinib” value is “significantly better than that of cabozantinib”. Further, on RET V804M, 0.3 nM corresponded to half-maximal inhibition (IC50) and the “inhibitory activity on RET V804M compared with cabozantinib” value is “significantly better than that of cabozantinib”. Further, in the assay on TT Cell, the IC50 is 12.3 nM and the “inhibitory activity on TT cells compared with cabozantinib” value was “significantly better than that of cabozantinib”.

`COc1ccc(C(=O)N2CCN(c3ccc(-c4cc(OCCF)cn5nc6[nH]ncc6c45)cn3)CC2)cn1` [Compound 22, (4-(5-(6-(2-fluoroethoxy)-1H-pyrazolo[3′,4′:3,4]pyrazolo[1,5-a]pyridin-4-yl)pyridin-2-yl)piperazin-1-yl)(6-methoxypyridin-3-yl)methanone]: at RET G810R, the IC50 worked out at 1.7 nM; the “inhibitory activity on RET G810R compared with cabozantinib and selpercatinib (LOXO-292)” value is “significantly better than that of cabozantinib and selpercatinib (LOXO-292)”. Further, in the assay with TT Cell, the concentration for half-maximal inhibition (IC50) is 39.5 nM and the “inhibitory activity on TT cells compared with cabozantinib” value is listed as “significantly better than that of cabozantinib”.

Turning to `COCCOc1cc(-c2ccc(N3CC4CC(C3)N4Cc3ccc(OC)nc3)nc2)c2c3c(N)n[nH]c3nn2c1` [Compound 1, 6-(2-methoxyethoxy)-4-(6-(6-((6-methoxypyridin-3-yl)methyl)-3,6-diazabicyclo[3.3.1]heptan-3-yl)pyridin-3-yl)-1H-pyrazolo[3′,4′:3,4]pyrazolo[1,5-a]pyridin-3-amine], at RET wt, the half-maximal inhibitory concentration (IC50) stood at 4.1 nM and the “inhibitory activity on RET wt compared with cabozantinib” value is reported as “significantly better than that of cabozantinib”. For the same compound, at RET V804M, the half-inhibitory concentration (IC50) was 2.9 nM and the “inhibitory activity on RET V804M compared with cabozantinib” value is recorded as “significantly better than that of cabozantinib”. The compound also gave a half-inhibitory concentration (IC50) in the assay with TT Cell of 319 nM.

As for `COc1ccc(CN2C3CC2CN(c2ccc(-c4cc(OCCO)cn5nc6[nH]ncc6c45)cn2)C3)cn1` [Compound 10], at RET G810R, the IC50 was found to be 3.8 nM; the “inhibitory activity on RET G810R compared with cabozantinib and selpercatinib (LOXO-292)” value was “significantly better than that of cabozantinib and selpercatinib (LOXO-292)”. Moreover, in the assay on TT Cell, 12.3 nM corresponded to half-maximal inhibition (IC50) and the “inhibitory activity on TT cells compared with cabozantinib” value is “significantly better than that of cabozantinib”.

On to `COc1ccc(CN2C3CC2CN(c2ccc(-c4cc(OCCCCF)cn5nc6[nH]ncc6c45)cn2)C3)cn1` [Compound 13], for which, on RET G810R, half-maximal inhibition (IC50) required 3.1 nM; the “inhibitory activity on RET G810R compared with cabozantinib and selpercatinib (LOXO-292)” value was “significantly better than that of cabozantinib and selpercatinib (LOXO-292)”. Moreover, in the assay with TT Cell, it took 10.7 nM to reach half-maximal inhibition (IC50) and the “inhibitory activity on TT cells compared with cabozantinib” value is on record as “significantly better than that of cabozantinib”.

As to `COc1ccc(CN2C3CC2CN(c2cnc(-c4cc(OCC(F)F)cn5nc6[nH]ncc6c45)cn2)C3)cn1` [Compound 25, 6-(2,2-difluoroethoxy)-4-(5-(6-((6-methoxypyridin-3-yl)methyl)-3,6-diazabicyclo[3.3.1]heptan-3-yl)pyrazin-2-yl)-1H-pyrazolo[3′,4′:3,4]pyrazolo[1,5-a]pyridine], at RET G810R, the concentration for half-maximal inhibition (IC50) stood at 4.3 nM; the “inhibitory activity on RET G810R compared with cabozantinib and selpercatinib (LOXO-292)” value was “significantly better than that of cabozantinib and selpercatinib (LOXO-292)”. In the assay on TT Cell, the half-maximal inhibitory concentration (IC50) is 23.4 nM and the “inhibitory activity on TT cells compared with cabozantinib” value is recorded as “significantly better than that of cabozantinib”.

On to `CO[C@@H](C(=O)N1CCN(c2ccc(-c3cc(OCCF)cn4nc5[nH]ncc5c34)cn2)CC1)c1ccccc1` [Compound 21, (R)-1-(4-(5-(6-(2-fluoroethoxy)-1H-pyrazolo[3′,4′:3,4]pyrazolo[1,5-a]pyridin-4-yl)pyridin-2-yl)piperazin-1-yl)-2-methoxy-2-phenylethan-1-one], for which, at RET G810R, half-maximal inhibition (IC50) was put at 0.6 nM; the “inhibitory activity on RET G810R compared with cabozantinib and selpercatinib (LOXO-292)” value is “significantly better than that of cabozantinib and selpercatinib (LOXO-292)”. In the assay with TT Cell, the IC50 was determined as 15.8 nM and the “inhibitory activity on TT cells compared with cabozantinib” value was “significantly better than that of cabozantinib”.

As for `COc1cc(-c2cnc(N3CC4CC(C3)N4Cc3ccc(OC)nc3)cn2)c2c3cn[nH]c3nn2c1` [Compound 24, 6-methoxy-4-(5-(6-((6-methoxypyridin-3-yl)methyl)-3,6-diazabicyclo[3.3.1]heptan-3-yl)pyrazin-2-yl)-1H-pyrazolo[3′,4′:3,4]pyrazolo[1,5-a]pyridine], at RET G810R, inhibition was half-maximal at 2.3 nM (IC50); the “inhibitory activity on RET G810R compared with cabozantinib and selpercatinib (LOXO-292)” value was “significantly better than that of cabozantinib and selpercatinib (LOXO-292)”. In addition, in the assay with TT Cell, half-maximal inhibition (IC50) was put at 22.4 nM and the “inhibitory activity on TT cells compared with cabozantinib” value is on record as “significantly better than that of cabozantinib”.
